Values joined by “and” are separate entries in the source; they are usually repeats but may differ in a detail not shown here. Identical values can stand only once. Counter-ions that a name gives are not always drawn.

Data set [1] has as its system RSV A2. The data set can be described thus: Quantification of infectious virus production (plaque assay). In kind it is cell-based, Respiratory syncytial virus. The note with it: Fig 3B; atorvastatin 3.5 uM, simvastatin 1.5 uM; supernatants of RSV A2-infected HEp-2; replicate values. As for the experimental part:
HEp-2 cells were seeded to six-well plates at a density of 1 × 10^6 cells per well and incubated overnight at 37 °C/5% CO2. The following morning, cells were infected with RSV A2 (MOI 1.0) and treated with drugs 2 h post-viral exposure. The supernatant, containing progeny virions, was collected 48 h p.i., snap frozen, and stored at −80 °C. Quantification of infectious virus particles was performed by a traditional plaque assay. HEp-2 cells were seeded to six-well plates at a density of 1.5 × 10^6 cells per well and grown to 90% confluency. Cells were incubated with serial dilutions of the collected supernatants for 90 min at 37 °C/5% CO2 under frequent agitation. The inoculant was then removed and replaced with 4 mL of 1:1 4% FBS DMEM-F12/1% agarose. Plates were incubated for 5 days at 37 °C/5% CO2. Cells were then fixed with 10% formalin for 30 min at room temperature. After fixation and removal of agarose from each well, the cells were stained with 0.05% neutral red and plaques were quantified under a dissecting microscope.

Data set [2] concerns RSV A2. Nature of the data set: Western blot of total viral protein levels (pan-RSV antibody). In kind it is cell-based, Respiratory syncytial virus. The note with it: 24 h p.i. The procedure: Prior studies in HEp-2 cells have shown that RSV mRNA and proteins can be detected 4–6 h p.i., while assembly is initiated roughly 10–12 h p.i., and mature viral filaments can be observed at the cell surface 16–18 h p.i.[26]–[28]. […] To verify this finding, a traditional plaque assay was performed to quantify infectious virus production from the supernatants of statin-treated RSV A2-infected HEp-2 cells. […] Lysates were also collected from RSV A2-infected HEp-2 cells (MOI 0.5) 24 h p.i. to probe viral protein expression by western blot. […] Changes to the expression and localization of the viral fusion glycoprotein (F) and nucleoprotein (N) were visualized by high-resolution confocal microscopy.
Box plots indicate the complete range (whiskers), interquartile range (box), and median (line) of measurements. […] Blots were stained using a pan-RSV polyclonal antibody (B65860G) that detects all viral antigens (see Supplementary Fig. 2). GAPDH controls were processed on a parallel blot with the same samples and protein load. Values are reported as means ± SEM (n = 3 cell lysates). d High-resolution confocal microscopy of the F (green) and N (magenta) proteins in RSV A2-infected HEp-2 cells (MOI 0.5). […] Scale bars = 20 µm. Statistics were calculated by a one-way ANOVA with a Dunnett’s multiple comparisons post hoc test (*P < 0.05, ***P < 0.001, ****P < 0.0001).
Supplementary Figure 2. Changes to viralprotein expression by statin or Rho GTPase inhibitor treatment. HEp-2 cells were infected with […]
post-viralexposure. Cell lysates were collected 24 h p.i.and viralprotein expression was probed using a pan-RSV polyclonal antibody (B65860G) which detects allviralantigens (n ≥2 cell lysates).GAPDH controlswere processed on parallelblots withthe same samples and protein load. […]
On the technique in general: A western blot detects proteins with antibodies after separation by electrophoresis.

For data set [3], the system named is RSV-GFP. The format is cell-based, Respiratory syncytial virus. The procedure: WD-PNECs were cultured as per the referenced protocol. Using a sterile cytology brush, nasal scrapings were obtained from healthy volunteers with no known history of lung disease or respiratory medication use. Cells were then seeded on a collagen-coated flask and maintained in Bronchial Epithelial Cell Growth Medium (BEGM) (CC-3170, Lonza) or PneumaCult-Ex (05008, […] Technologies). Upon reaching 70% confluency, cells were passaged and seeded on collagen-coated transwell inserts (6.5 mm diameter, 0.4 µm pore size) (3413, Corning). An air–liquid interface was generated by removing media on the apical side of the cells and replacing the remaining media with PneumaCult-ALI media (05001, […] Technologies). By week 3, cells were differentiated with a ciliated phenotype. Transepithelial resistance was quantified using an ohmmeter (World Precision Instruments) to evaluate epithelial barrier function prior to experimentation. Cells were apically infected with RSV-GFP (MOI 0.01) and infection rates were quantified from GFP signal.

The test system of data set [4] is RSV-GFP. The data set can be described thus: Time-of-drug addition assay. The format is cell-based, Respiratory syncytial virus. The following applies: for antiviral effect by time of addition: 3.5 µM; for RSV-GFP inhibition (% of maximum): MOI 2.0, read 24 h p.i. As for the experimental part: Time-of-drug addition assays are routinely used to assess the approximate stage of viral infection affected by a drug[25]. HEp-2 cells were seeded to black, flat, microclear-bottom 96-well plates (Greiner Bio-One) and infected with RSV-GFP (MOI 2.0). […]. RSV-GFP infection rates were quantified 24 h p.i to approximately capture a single cycle of infection.

For data set [5], the system named is RSV A2. Nature of the data set: Immunofluorescence staining and microscopy of RSV F and N.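 For RSV N intensity (a.u.): fluorescence normalized to total nuclear count.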
Experimental: HEp-2 cells were seeded to No. 1 glass coverslips (1014355117NR1, Thermo Fisher Scientific) for high-resolution confocal microscopy, or black, flat, microclear-bottom 96-well plates (655096, Greiner Bio-One) for high-throughput quantification of RSV F and N immunofluorescence. Cells were infected with RSV A2 (MOI 0.5). At 48 h p.i., cells were fixed in 4% paraformaldehyde for 30 min and permeabilized with 0.3% Triton X-100 for 10 min at room temperature. F and N proteins were probed using mouse anti-RSV F (RSV3216) and mouse anti-RSV N (RSV3132) mAbs (Bio-Rad Antibodies) diluted 1:500 in PBS + 0.1% Tween-20 (PBST), or mouse anti-RSV F mAb Alexa Fluor 488 conjugate (Millipore Sigma, 133/1H) diluted 1:200 in PBST over a 1-h incubation at room temperature. This was followed by detection with secondary anti-mouse Fab fragments conjugated to Alexa Fluor 488 (4408) or 647 (4410) (Cell Signaling Technology) diluted 1:1000 in PBST over a 1-h incubation at room temperature. Fluorescent images were acquired using either the Cellomics ArrayScan VTI HCS Reader at ×10 magnification (for quantification) or Olympus IX81 Spinning Disk Confocal microscope at ×60 magnification with oil immersion (for high-resolution images). F and N immunofluorescence was quantified in CellProfiler and normalized to total nuclear count.
The subject of data set [6] is RSV-GFP. The data set can be described thus: microbe, parasite or virus in culture. In kind it is cell-based, Respiratory syncytial virus. The method, boiled down: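 Cells infected with RSV-GFP (MOI 0.5) for 90 min in serum-free medium; library compounds added within 1 h of infection at 10 µM final (0.1% DMSO). At 48 h p.i., infection rate was imaged as fraction of nuclei within GFP area, with mean nuclear intensity and size serving as the viability measure.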

Consider `CC(C)c1c(C(=O)Nc2ccccc2)c(-c2ccccc2)c(-c2ccc(F)cc2)n1CC[C@@H](O)C[C@@H](O)CC(=O)O` [Atorvastatin, Atorvastatin calcium salt trihydrate], for which the “Virus titre (log10 PFU/mL)” value in the data set with RSV A2 [1] is 4.38 log10 PFU/mL and 4.4624 log10 PFU/mL and 4.176 log10 PFU/mL and 4.322 log10 PFU/mL. Besides, the “Total viral protein levels (GAPDH normalized)” value in the data set with RSV A2 [2] (MOI 0.5, atorvastatin 3.5 uM, simvastatin 1.5 uM, one value per lysate) was 1.385 and 1.458 and 1.299. In addition, the “total viral protein levels by western blot” value with RSV A2 [2] (atorvastatin 3.5 µM, simvastatin 1.5 µM, EHT 1864 20.0 µM) was “decrease in total viral protein levels”. Besides, the “reduction of RSV-GFP infection” value in the data set on RSV-GFP [3] (atorvastatin 5.0 µM, 72 h post-infection, mean ± SEM) is given as 67.4 ± 11.5%. In the data set with RSV-GFP [3] (microscopic appearance and barrier integrity), the “cellular viability of PNECs” value is “Cellular viability remained intact”. In addition, the “antiviral effect by time of addition” value in the data set on RSV-GFP [4] (added 8–22 h p.i.) is “loss in antiviral effect”; with RSV-GFP [4] (added 2 h pre-infection vs. 2–6 h post-infection), “No difference in antiviral effect”. For the same compound, the “RSV-GFP inhibition (% of maximum)” value in the data set with RSV-GFP [4] (atorvastatin 3.5 µM added 2 h p.i.) is 93.8741 % of maximum and 100 % of maximum and 63.7076 % of maximum and 87.4617 % of maximum; in the data set on RSV-GFP [4] (atorvastatin 3.5 µM added 4 h p.i.), 79.9181 % of maximum and 67.4308 % of maximum and 95.7721 % of maximum and 95.1175 % of maximum; in the data set with RSV-GFP [4] (atorvastatin 3.5 µM added 6 h p.i.), 73.0198 % of maximum and 92.897 % of maximum and 83.1029 % of maximum and 75.3925 % of maximum; in the data set on RSV-GFP [4] (atorvastatin 3.5 µM added 8 h p.i.), 73.881 % of maximum and 38.0526 % of maximum and 68.6457 % of maximum and 56.4404 % of maximum; with RSV-GFP [4] (atorvastatin 3.5 µM added -2 h p.i.) it was 95.6726 % of maximum and 68.3345 % of maximum and 91.0474 % of maximum and 75.5348 % of maximum. For the same compound, in the data set with RSV A2 [5] (Fig 5C, statin alone: atorvastatin 3.5 uM, simvastatin 1.5 uM), the “RSV N intensity (a.u.)” value was 0.7327 a.u. and 0.5028 a.u. and 0.4468 a.u. and 0.7381 a.u. Also, the “effect of atorvastatin co-treatment with CN04” value in the data set on RSV A2 [5] (atorvastatin 3.5 µM with CN04 1.0 µM) is recorded as “negated the pro-viral effects of Rho GTPase activation”. Further, in the data set with RSV-GFP [6] (HEp-2, RSV-GFP), the “RSV inhibition in the screen” value is on record as “inhibit RSV at low micromolar concentrations”. In the data set with RSV-GFP [6] (human respiratory syncytial virus, HEp-2, read-out: RSV-GFP inhibition (%)), the inhibition (commonly how much of the control response was suppressed) at 10 µM came to 56.4%.

(Values after article PMC8556396, “Statin-mediated disruption of Rho GTPase prenylation and activity inhibits respiratory syncytial virus infection” (Communications Biology, 2021).)
